Key:
[1] = target: T1, menin-MLL interaction (Homo sapiens, UniProt O00255); experiment: biochemical
T1 sequence (O00255 1-610): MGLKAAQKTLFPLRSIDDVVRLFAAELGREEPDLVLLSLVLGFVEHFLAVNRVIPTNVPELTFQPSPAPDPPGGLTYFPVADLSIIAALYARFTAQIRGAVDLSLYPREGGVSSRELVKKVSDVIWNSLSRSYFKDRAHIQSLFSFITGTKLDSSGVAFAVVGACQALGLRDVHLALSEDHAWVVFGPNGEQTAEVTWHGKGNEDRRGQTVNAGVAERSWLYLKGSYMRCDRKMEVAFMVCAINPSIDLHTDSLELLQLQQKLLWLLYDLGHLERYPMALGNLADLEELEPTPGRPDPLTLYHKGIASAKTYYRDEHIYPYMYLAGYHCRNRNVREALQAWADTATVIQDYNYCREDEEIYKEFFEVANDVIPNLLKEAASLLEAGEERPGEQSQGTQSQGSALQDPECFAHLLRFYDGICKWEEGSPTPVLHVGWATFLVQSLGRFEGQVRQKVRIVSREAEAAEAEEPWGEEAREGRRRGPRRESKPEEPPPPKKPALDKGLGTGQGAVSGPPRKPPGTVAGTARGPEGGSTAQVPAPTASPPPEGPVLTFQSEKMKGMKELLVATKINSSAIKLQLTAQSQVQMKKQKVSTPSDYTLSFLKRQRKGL
Excerpt: Fluorescence Polarization Assay.
Compounds that inhibit the interaction decrease the fluorescence anisotropy which is being used as a read-out for compound screening and for IC50 determination.

[2] = system: MLL-AF9 transformed BMC; experiment: Growth curves experiments in transformed BMC; format: cell-based, mouse; conditions: MLL-AF9 BMC vs Hoxa9/Meis1 transformed BMC (negative control), FIG. 5
[3] = system: human MLL leukemia cell lines; experiment: Growth / MTT cell viability in human MLL leukemia cell lines; format: cell-based
[4] = system: MLL-AF9 BMC; experiment: Differentiation (CD11b expression, cell morphology); format: cell-based, mouse; conditions: change in CD11b expression and cell morphology, FIGS. 8, 9
[5] = target: T2, menin-MLL-AF9 interaction (Homo sapiens, UniProt O00255); experiment: Co-Immunoprecipitation (co-IP) in HEK293 cells transfected with MLL-AF9; format: cell-based; conditions: FIG. 2
T2 construct: performed in HEK293 cells transfected with MLL-AF9; endogenous in cells; host or cells: HEK293
T2 sequence (O00255 1-610): T1 sequence (O00255 1-610)

[6] = system: Hoxa9 and Meis1 expression in MLL-AF9 BMC; experiment: qRT-PCR of Hoxa9 and Meis1; format: cell-based, mouse; conditions: FIG. 10
[7] = system: non-MLL leukemia cell lines; experiment: Growth in non-MLL leukemia cell lines; format: cell-based; conditions: FIG. 13B
[8] = system: MLL-AF9 transformed mouse bone marrow cells (BMC); experiment: MTT cell viability assay in transformed BMC; format: cell-based; conditions: 72 h incubation, E2H-HLF transformed BMC as negative control, FIG. 3
[9] = system: mice model of MLL-AF9 leukemia; experiment: In vivo efficacy in mice model of MLL-AF9 leukemia; conditions: once daily i.p. injections of 75 mg/kg, FIG. 18
[10] = system: MLL-AF9 BMC; experiment: Colony formation assay; format: cell-based, mouse; conditions: FIG. 7
[11] = target: T3, menin (Homo sapiens, UniProt O00255); experiment: Isothermal Titration calorimetry (ITC); format: binding; conditions: FIG. 1
T3 sequence (O00255 1-610): T1 sequence (O00255 1-610)

IC50 [1] [nM] | Compound | inhibition of the menin-MLL-AF9 interaction [5] | expression of downstream targets of MLL fusion proteins: Hoxa9 and Meis1 [6] | proliferation of MLL leukemia cells [8] | also measured
500 to 2000 | CC(F)(F)Cc1cc2c(NC3CCN(Cc4ccccc4)CC3)ncnc2s1 [Compound 155] |  |  |  | 
100 to 510 | CC1(C)CN=C(N2C[C@@H]3C[C@H]2CN3c2ncnc3sc(CC(F)(F)F)cc23)S1 (racemic) [Compound 14] |  |  |  | 
 | N#Cc1cc2cc(CN3CCC(Nc4ncnc5sc(CC(F)(F)F)cc45)CC3)ccc2[nH]1 [Compound 175, 5-((4-((6-(2,2,2-trifluoroethyl)thieno[2,3-d]pyrimidin-4-yl)amino)piperidin-1-yl)methyl)-1H-indole-2-carbonitrile] | inhibition of the menin-MLL-AF9 interaction | downregulate expression |  | selectivity towards MLL fusion protein transformed cells [2]: great selectivity; growth of human MLL leukemia cell lines ([3]; FIG. 13A): selectively inhibits growth; differentiation [4]: Differentiation induced; effect in non-MLL leukemia cell lines [7]: limited effect
 | FC(F)(F)Cc1cc2c(NC3CCN(Cc4ccccc4)CC3)ncnc2s1 [Compound 108] | inhibition of the menin-MLL-AF9 interaction | downregulate expression | selectively inhibit proliferation | growth of human MLL leukemia cell lines ([3]; MTT, 3 days of incubation, FIG. 11): selectively inhibit growth; survival of leukemic mice [9]: Increase in survival; morphology of colonies [10]: changes morphology of colonies; colony number ([10]; each round 7 days): reduces colony number
 | CC1(C)CN=C(N2CCN(c3ncnc4sc(CC(F)(F)F)cc34)CC2)S1 [Compound 1, 4-(4-(5,5-dimethyl-4,5-dihydrothiazol-2-yl)piperazin-1-yl)-6-(2,2,2-trifluoroethyl)thieno[2,3-d]pyrimidine] | inhibition of the menin-MLL-AF9 interaction | downregulate expression | selectively inhibit proliferation | binding to menin [11]: direct binding
